Experiment: physchem
Conditions: octanol/buffer

Row | Structure (SMILES) | logP
1 | CN(CCCc1ccccc1)C(=O)[C@H]1CNCC(=O)N1c1ccc(CCCOc2c(F)ccc(F)c2F)cc1 | 5.01
2 | COCCCc1ccc(Cl)c(CN(C(=O)[C@H]2CNCC(=O)N2c2cnc(OCCCOCc3ccccc3OC)nc2)C2CC2)c1 | 3.7
3 | CNC(=O)OCc1ccc(Cl)c(CN(C(=O)[C@H]2CNCC(=O)N2c2ccc(COC(=O)c3ccccc3)cc2)C2CC2)c1 | 4.48
4 | COc1ccccc1COCCCOc1ncc(N2C(=O)CNC[C@@H]2C(=O)N(Cc2ccccc2Cl)C2CC2)cn1 | 3.05
5 | Cc1cccc(CN(C(=O)[C@H]2CNCC(=O)N2c2ccc(OCCCOCc3ccccc3)cc2)C2CC2)c1C | 5.11
6 | CNC(=O)OCc1ccc(Cl)c(CN(C(=O)[C@H]2CNCC(=O)N2c2ccc(CCCOc3c(F)ccc(F)c3F)cc2)C2CC2)c1 | 5.48
7 | Cc1cc(Cl)c(OCCOc2ccc(N3C(=O)CNC[C@@H]3C(=O)N(Cc3cc(CCNC4CC4)ccc3Cl)C3CC3)cn2)c(Cl)c1 | 5.56
8 | Cc1cc(Cl)c(OCCOc2ccc(N3C(=O)CNC[C@@H]3C(=O)N(C)CCCc3ccccc3)cn2)c(Cl)c1 | 4.29
9 | O=C(CC(F)(F)F)NCc1ccc(Cl)c(CN(C(=O)[C@H]2CNCC(=O)N2c2ccc(OCCCOCc3ccccc3)cc2)C2CC2)c1 | 5.29
10 | O=C(CC(F)(F)F)NCc1ccc(Cl)c(CN(C(=O)[C@H]2CNCC(=O)N2c2ccc(COC(=O)c3ccccc3)cc2)C2CC2)c1 | 4.92
11 | COc1ccccc1COCCCOc1ccc(N2C(=O)CNC[C@@H]2C(=O)N(Cc2cc(CCNCC(F)F)ccc2Cl)C2CC2)cc1 | 5.38
12 | COc1ccccc1COCCCOc1ncc(N2C(=O)CNC[C@@H]2C(=O)N(Cc2ccnc(C)c2OC)C2CC2)cn1 | 1.44
13 | O=C(CC(F)(F)F)NCCc1ccc(Cl)c(CN(C(=O)[C@H]2CNCC(=O)N2c2ccc(CCCOc3c(F)ccc(F)c3F)cc2)C2CC2)c1 | 6
14 | Cc1cc(Cl)c(OCCOc2ccc(N3C(=O)CNC[C@@H]3C(=O)N(Cc3cc(CNC4CC4)ccc3Cl)C3CC3)cc2)c(Cl)c1 | 6.3
15 | COc1ccccc1COCCCOc1ccc(N2C(=O)CNC[C@@H]2C(=O)N(Cc2cc(CCNC(=O)COC(C)(C)C)ccc2Cl)C2CC2)cc1 | 5.61
16 | COc1cccc(CN(C(=O)[C@H]2CNCC(=O)N2c2ccc(OCCOc3c(Cl)cc(C)cc3Cl)cc2)C2CC2)c1C | 5.49
17 | CNC(=O)OCCc1ccc(Cl)c(CN(C(=O)[C@H]2CNCC(=O)N2c2ccc(OCCOc3c(Cl)cc(C)cc3Cl)nc2)C2CC2)c1 | 4.84
18 | COc1c(CN(C(=O)[C@H]2CNCC(=O)N2c2ccc(OCCCOCc3ccccc3)cc2)C2CC2)ccnc1C | 3.49
19 | O=C(OCc1ccc(N2C(=O)CNC[C@@H]2C(=O)N(Cc2ccccc2Cl)C2CC2)cc1)c1ccccc1 | 4.73
20 | Cc1cc(Cl)c(OCCOc2ccc(N3C(=O)CNC[C@@H]3C(=O)N(Cc3cc(CNCC(F)F)ccc3Cl)C3CC3)cc2)c(Cl)c1 | 6.07
21 | COc1ccccc1COCCCOc1ccc(N2C(=O)CNC[C@@H]2C(=O)N(Cc2cc(CNC(=O)CC(F)(F)F)ccc2Cl)C2CC2)cc1 | 5.25
22 | CNCc1ccc(Cl)c(CN(C(=O)[C@H]2CNCC(=O)N2c2ccc(CCCOc3cccc(Cl)c3)cc2)C2CC2)c1 | 5.72
23 | COc1ccccc1COCCCOc1ccc(N2C(=O)CNC[C@@H]2C(=O)N(Cc2cc(CCNC3CC3)ccc2Cl)C2CC2)cc1 | 5.62
24 | CNC(=O)Cc1ccc(Cl)c(CN(C(=O)[C@H]2CNCC(=O)N2c2ccc(OCCCOCc3ccccc3OC)cc2)C2CC2)c1 | 4.48
25 | Cc1cc(Cl)c(OCCOc2ccc(N3C(=O)CNC[C@@H]3C(=O)N(Cc3cccc(Cl)c3Cl)C3CC3)cc2)c(Cl)c1 | 6.42

Other lines, results leading:

Row | logP | Structure (SMILES)
26 | 3.67 | O=C(NCc1ccccc1)[C@H]1CNCC(=O)N1c1ccc(OCCCOCc2ccccc2)cc1
27 | 4.41 | COc1ccccc1COCCCOc1ccc(N2C(=O)CNC[C@@H]2C(=O)N(C)Cc2ccccc2Cl)cc1
28 | 5.02 | Cc1ccccc1Cc1c(C(=O)N2CCNCC2)c2ccccc2n1-c1ccsc1
29 | 5.29 | COc1ccccc1COCCCOc1ccc(N2C(=O)CNC[C@@H]2C(=O)N(Cc2cc(CNCC(F)F)ccc2Cl)C2CC2)cc1
30 | 5.91 | O=C(CC(F)(F)F)NCc1ccc(Cl)c(CN(C(=O)[C@H]2CNCC(=O)N2c2ccc(CCCOc3c(F)ccc(F)c3F)cc2)C2CC2)c1
31 | 4.98 | Cc1cc(Cl)c(OCCOc2ccc(N3C(=O)CNC[C@@H]3C(=O)NCc3ccccc3Cl)cc2)c(Cl)c1
32 | 5.07 | CN(Cc1ccccc1Cl)C(=O)[C@H]1CNCC(=O)N1c1ccc(CCCOc2c(F)ccc(F)c2F)cc1
33 | 3.85 | Cc1cc(Cl)c(OCCOc2ccc(N3C(=O)CNC[C@@H]3C(=O)N(C)CCc3ccccc3)cn2)c(Cl)c1
34 | 5.19 | CN(CCCc1ccccc1)C(=O)[C@H]1CNCC(=O)N1c1ccc(CCCOc2cccc(Cl)c2)cc1
35 | 6.18 | O=C(CC(F)(F)F)NCCc1ccc(Cl)c(CN(C(=O)[C@H]2CNCC(=O)N2c2ccc(CCCOc3cccc(Cl)c3)cc2)C2CC2)c1
36 | 6.46 | CC(C)(C)OCC(=O)NCCc1ccc(Cl)c(CN(C(=O)[C@H]2CNCC(=O)N2c2ccc(CCCOc3cccc(Cl)c3)cc2)C2CC2)c1
37 | 4.64 | CNCCc1ccc(Cl)c(CN(C(=O)[C@H]2CNCC(=O)N2c2ccc(COC(=O)c3ccccc3)cc2)C2CC2)c1
38 | 3.61 | COc1ccccc1COCCCOc1ncc(N2C(=O)CNC[C@@H]2C(=O)N(Cc2cc(CCNC3CC3)ccc2Cl)C2CC2)cn1
39 | 2.6 | COc1ccccc1COCCCOc1ncc(N2C(=O)CNC[C@@H]2C(=O)N(Cc2cc(CCNC(C)=O)ccc2Cl)C2CC2)cn1
40 | 5.14 | O=C([C@H]1CNCC(=O)N1c1ccc(OCCCOCc2ccccc2)cc1)N(Cc1cccc(Cl)c1)C1CC1
41 | 5.73 | O=C([C@H]1CNCC(=O)N1c1ccc(CCCOc2c(F)ccc(F)c2F)cc1)N(Cc1ccc(Cl)cc1)C1CC1
42 | 4.61 | COc1ccccc1COCCCOc1ccc(N2C(=O)CNC[C@@H]2C(=O)N(Cc2cc(CCNC(C)=O)ccc2Cl)C2CC2)cc1
43 | 4.99 | COc1ccccc1COCCCOc1ccc(N2C(=O)CNC[C@@H]2C(=O)N(Cc2cc(CNCCF)ccc2Cl)C2CC2)cc1
44 | 3.05 | COc1ccccc1COCCCOc1ncc(N2C(=O)CNC[C@@H]2C(=O)N(Cc2cccc(C)c2C)C2CC2)cn1
45 | 4.02 | CN(CCCc1ccccc1)C(=O)[C@H]1CNCC(=O)N1c1ccc(COC(=O)c2ccccc2)cc1
46 | 5.65 | CNCc1ccc(Cl)c(CN(C(=O)[C@H]2CNCC(=O)N2c2ccc(OCCOc3c(Cl)cc(C)cc3Cl)cc2)C2CC2)c1
47 | 2.56 | CNC(=O)CCc1ccc(Cl)c(CN(C(=O)[C@H]2CNCC(=O)N2c2cnc(OCCCOCc3ccccc3OC)nc2)C2CC2)c1
48 | 4.92 | CNCc1ccc(Cl)c(CN(C(=O)[C@H]2CNCC(=O)N2c2ccc(OCCCOCc3ccccc3)cc2)C2CC2)c1
49 | 5.66 | CC(C)(C)OCC(=O)NCCc1ccc(Cl)c(CN(C(=O)[C@H]2CNCC(=O)N2c2ccc(OCCCOCc3ccccc3)cc2)C2CC2)c1
50 | 5.53 | COc1ccccc1COCCCOc1ccc(N2C(=O)CNC[C@@H]2C(=O)N(Cc2cc(CNC3CC3)ccc2Cl)C2CC2)cc1
51 | 5.15 | CNC(=O)Cc1ccc(Cl)c(CN(C(=O)[C@H]2CNCC(=O)N2c2ccc(CCCOc3c(F)ccc(F)c3F)cc2)C2CC2)c1
52 | 5.34 | CNC(=O)CCc1ccc(Cl)c(CN(C(=O)[C@H]2CNCC(=O)N2c2ccc(OCCOc3c(Cl)cc(C)cc3Cl)cc2)C2CC2)c1
53 | 5.81 | CNCCc1ccc(Cl)c(CN(C(=O)[C@H]2CNCC(=O)N2c2ccc(CCCOc3cccc(Cl)c3)cc2)C2CC2)c1
54 | 3.37 | COc1ccccc1COCCCOc1ncc(N2C(=O)CNC[C@@H]2C(=O)N(Cc2cc(CCNCC(F)F)ccc2Cl)C2CC2)cn1
